Experimental data published in the NIST ThermoML archive (doi:10.1016/j.jct.2012.09.028).
Numbers after ± are expanded uncertainties.

Assay: molar heat capacity at constant pressure
Settings: 101.33 kPa, Crystal, Vacuum adiabatic calorimetry

O=C[C@H](O)[C@@H](O)[C@H](O)CO [D-xylose]
molar heat capacity at constant pressure (0.5 K): 0.0003448 J/K/mol
molar heat capacity at constant pressure (1 K): 0.0013 J/K/mol
molar heat capacity at constant pressure (1.5 K): 0.003533 J/K/mol
molar heat capacity at constant pressure (1.9 K): 0.006645 J/K/mol
molar heat capacity at constant pressure (2 K): 0.007825 ± 0.01 J/K/mol
molar heat capacity at constant pressure (2.04 K): 0.008242 J/K/mol
molar heat capacity at constant pressure (2.083 K): 0.008788 J/K/mol
molar heat capacity at constant pressure (2.243 K): 0.01097 J/K/mol
molar heat capacity at constant pressure (2.3 K): 0.01187 J/K/mol
molar heat capacity at constant pressure (2.472 K): 0.01471 J/K/mol
molar heat capacity at constant pressure (2.5 K): 0.01512 ± 0.01 J/K/mol
molar heat capacity at constant pressure (2.538 K): 0.01596 J/K/mol
molar heat capacity at constant pressure (2.632 K): 0.01783 J/K/mol
molar heat capacity at constant pressure (2.787 K): 0.02124 ± 0.041 J/K/mol
molar heat capacity at constant pressure (2.901 K): 0.02401 ± 0.041 J/K/mol
molar heat capacity at constant pressure (3 K): 0.02656 ± 0.01 J/K/mol
molar heat capacity at constant pressure (3.078 K): 0.02907 ± 0.041 J/K/mol
molar heat capacity at constant pressure (3.204 K): 0.03288 ± 0.041 J/K/mol
molar heat capacity at constant pressure (3.413 K): 0.04037 ± 0.041 J/K/mol
molar heat capacity at constant pressure (3.5 K): 0.04351 ± 0.01 J/K/mol
molar heat capacity at constant pressure (3.544 K): 0.04525 ± 0.041 J/K/mol
molar heat capacity at constant pressure (3.773 K): 0.05561 ± 0.041 J/K/mol
molar heat capacity at constant pressure (3.939 K): 0.06374 ± 0.041 J/K/mol
molar heat capacity at constant pressure (4 K): 0.06758 ± 0.011 J/K/mol
molar heat capacity at constant pressure (4.203 K): 0.07931 ± 0.041 J/K/mol
molar heat capacity at constant pressure (4.383 K): 0.09097 ± 0.041 J/K/mol
molar heat capacity at constant pressure (4.5 K): 0.1006 ± 0.011 J/K/mol
molar heat capacity at constant pressure (4.66 K): 0.1124 ± 0.041 J/K/mol
molar heat capacity at constant pressure (4.87 K): 0.1305 ± 0.041 J/K/mol
molar heat capacity at constant pressure (5 K): 0.1446 ± 0.011 J/K/mol
molar heat capacity at constant pressure (5.179 K): 0.1619 ± 0.041 J/K/mol
molar heat capacity at constant pressure (5.436 K): 0.1916 ± 0.041 J/K/mol
molar heat capacity at constant pressure (5.5 K): 0.2018 ± 0.012 J/K/mol
molar heat capacity at constant pressure (5.775 K): 0.2386 ± 0.041 J/K/mol
molar heat capacity at constant pressure (6 K): 0.2744 ± 0.013 J/K/mol
molar heat capacity at constant pressure (6.082 K): 0.2866 ± 0.041 J/K/mol
molar heat capacity at constant pressure (6.466 K): 0.3591 ± 0.041 J/K/mol
molar heat capacity at constant pressure (6.5 K): 0.3648 ± 0.014 J/K/mol
molar heat capacity at constant pressure (6.745 K): 0.4181 ± 0.041 J/K/mol
molar heat capacity at constant pressure (7 K): 0.4752 ± 0.015 J/K/mol
molar heat capacity at constant pressure (7.159 K): 0.5189 ± 0.042 J/K/mol
molar heat capacity at constant pressure (7.497 K): 0.6119 ± 0.042 J/K/mol
molar heat capacity at constant pressure (7.5 K): 0.6076 ± 0.016 J/K/mol
molar heat capacity at constant pressure (7.959 K): 0.7584 ± 0.042 J/K/mol
molar heat capacity at constant pressure (8 K): 0.7638 ± 0.018 J/K/mol
molar heat capacity at constant pressure (8.353 K): 0.8969 ± 0.043 J/K/mol
molar heat capacity at constant pressure (8.5 K): 0.945 ± 0.019 J/K/mol
molar heat capacity at constant pressure (8.863 K): 1.101 ± 0.043 J/K/mol
molar heat capacity at constant pressure (9 K): 1.152 ± 0.021 J/K/mol
molar heat capacity at constant pressure (9.3 K): 1.292 ± 0.043 J/K/mol
molar heat capacity at constant pressure (9.5 K): 1.385 ± 0.023 J/K/mol
molar heat capacity at constant pressure (9.864 K): 1.569 ± 0.044 J/K/mol
molar heat capacity at constant pressure (10 K): 1.644 ± 0.025 J/K/mol
molar heat capacity at constant pressure (10.35 K): 1.83 ± 0.045 J/K/mol
molar heat capacity at constant pressure (10.97 K): 2.212 ± 0.045 J/K/mol
molar heat capacity at constant pressure (11 K): 2.219 ± 0.029 J/K/mol
molar heat capacity at constant pressure (11.52 K): 2.546 ± 0.047 J/K/mol
molar heat capacity at constant pressure (12 K): 2.871 ± 0.034 J/K/mol
molar heat capacity at constant pressure (12.19 K): 2.736 ± 0.047 J/K/mol
molar heat capacity at constant pressure (12.72 K): 3.408 ± 0.049 J/K/mol
molar heat capacity at constant pressure (13 K): 3.59 ± 0.039 J/K/mol
molar heat capacity at constant pressure (13.56 K): 4.028 ± 0.051 J/K/mol
molar heat capacity at constant pressure (14 K): 4.364 ± 0.043 J/K/mol
molar heat capacity at constant pressure (14.25 K): 4.551 ± 0.052 J/K/mol
molar heat capacity at constant pressure (15 K): 5.182 ± 0.048 J/K/mol
molar heat capacity at constant pressure (15.07 K): 5.238 ± 0.054 J/K/mol
molar heat capacity at constant pressure (15.84 K): 5.872 ± 0.055 J/K/mol
molar heat capacity at constant pressure (16 K): 6.036 ± 0.052 J/K/mol
molar heat capacity at constant pressure (16.59 K): 6.471 ± 0.057 J/K/mol
molar heat capacity at constant pressure (17 K): 6.917 ± 0.056 J/K/mol
molar heat capacity at constant pressure (17.61 K): 7.437 ± 0.059 J/K/mol
molar heat capacity at constant pressure (18 K): 7.819 ± 0.06 J/K/mol
molar heat capacity at constant pressure (18.42 K): 8.194 ± 0.061 J/K/mol
molar heat capacity at constant pressure (18.99 K): 8.794 ± 0.062 J/K/mol
molar heat capacity at constant pressure (19 K): 8.734 ± 0.064 J/K/mol
molar heat capacity at constant pressure (20 K): 9.657 ± 0.067 J/K/mol
molar heat capacity at constant pressure (20.27 K): 9.969 ± 0.064 J/K/mol
molar heat capacity at constant pressure (21.17 K): 10.74 ± 0.055 J/K/mol
molar heat capacity at constant pressure (22.58 K): 12.06 ± 0.058 J/K/mol
molar heat capacity at constant pressure (23.64 K): 13.08 ± 0.059 J/K/mol
molar heat capacity at constant pressure (25 K): 14.25 ± 0.076 J/K/mol
molar heat capacity at constant pressure (25.13 K): 14.39 ± 0.06 J/K/mol
molar heat capacity at constant pressure (26.29 K): 15.41 ± 0.061 J/K/mol
molar heat capacity at constant pressure (27.98 K): 16.85 ± 0.06 J/K/mol
molar heat capacity at constant pressure (29.32 K): 17.97 ± 0.059 J/K/mol
molar heat capacity at constant pressure (30 K): 18.55 ± 0.079 J/K/mol
molar heat capacity at constant pressure (31.15 K): 19.42 ± 0.063 J/K/mol
molar heat capacity at constant pressure (32.68 K): 20.56 ± 0.065 J/K/mol
molar heat capacity at constant pressure (34.69 K): 22.14 ± 0.067 J/K/mol
molar heat capacity at constant pressure (35 K): 22.47 ± 0.086 J/K/mol
molar heat capacity at constant pressure (36.33 K): 23.55 ± 0.069 J/K/mol
molar heat capacity at constant pressure (38.59 K): 25.09 ± 0.071 J/K/mol
